These results are taken from patent publication US20180344702A1, “METHODS FOR TREATING PATIENTS WITH HEMATOLOGIC MALIGNANCIES” (Aptose Biosciences, Inc., priority 2017, published 2018).

For experiment [1], the system named is BCR signaling in Ramos cells. Description: BCR signaling in IgM-stimulated Ramos cells. The format is cell-based. The following applies: 1 or 6 hours, then 12 μg/mL IgM for 3 min. On the procedure: In this experiment, Ramos cells were treated with or without Compound 7 or Ibrutinin at the indicated concentration for 1 (6 replicates) or 6 (3 replicates) hours, then stimulated with 12 μg/mL IgM for 3 min.

Experiment [2] concerns Mino cells. Description: Polyploidy in B-cell lines (Edu and PI staining, FACS). The format is cell-based, human. Particulars: 0.1 and 1.0 nM. How it is done:
Further mechanistic studies were undertaken to fully elucidate Compound 7's potent cytotoxicity. B-cell lines were treated with vehicle or Compound 7 for 24-72 hours and the increase in DNA content or polyploidy phenotype was assessed using Edu and PI staining followed by FACS analysis using the BD Accuri C6 flow cytometer.
Mino and Ramos cell lines were treated with increasing concentrations of.

Experiment [3] concerns the target FLT3(WT) (Homo sapiens, UniProt P36888). Description: Binding constant (Kd), competition binding with qPCR readout. Background: Real-time PCR tracks product formation cycle by cycle.
The subject of experiment [4] is MV4-11 (FLT3-ITD, t(4:11)). Description: Antiproliferative activity (Table 6). Particulars: Homo sapiens, MV4-11, 72 h. The format is cell-based.
Experiment [5] deals with T1, C481S BTK (Homo sapiens, UniProt Q06187, C481S).
T1 construct: expressed in transfected cells; host or cells: HEK293T
Description: BTK phosphorylation in transfected HEK293T cells (Western blot). The class given is cell-based. The following applies: HEK293T transfected with C481S BTK; 0.5 and 1.0 μM, six hours. On the procedure:
(§1) HEK293T cells were transiently transfected with wild-type BTK or C481S BTK. The transfected cells were treated with or without Compound 7 (0.5 and 1.0 μM) for six hours. This was performed in triplicate and the results were analyzed by Western Blot analysis.

Experiment [6] deals with T2, wild-type BTK (Homo sapiens, UniProt Q06187).
T2 construct: expressed in transfected cells; host or cells: HEK293T
The description is as above. The class given is cell-based. Particulars: HEK293T transfected with wild-type BTK; 0.5 and 1.0 μM, six hours. On the procedure: as §1

Experiment [7] concerns the target FLT3(ITD) (Homo sapiens, UniProt P36888). Description: Binding constant (Kd), competition binding with qPCR readout. The arrangement: other: FLT3(ITD); kinase-tagged T7 phage strains were prepared in an E. coli host derived from the BL21 strain; fused on or other part: T7 phage fusion or DNA tag for qPCR detection.
For experiment [8], the system named is MOLM14 (FLT3-ITD, t(9:11)). Description: Antiproliferative activity (Table 6). The format is cell-based. Particulars: Homo sapiens, MOLM-14, 72 h.
The target in experiment [9] is T3, BTK C481S (Homo sapiens, UniProt Q06187, C481S). Description: Inhibition of BTK, kinase IC50. Also on record: RBC (only as the name of the general kinase protocol). The format is biochemical. How it is done:
RBC HotSpot Kinase Assay Protocol:
Reagents used: Base Reaction buffer; 20 mM Hepes (pH 7.5), 10 mM MgCl2, 1 mM EGTA, 0.02% Brij35, 0.02 mg/ml BSA, 0.1 mM Na3VO4, 2 mM DTT, 1% DMSO. Required cofactors are added individually to each kinase reaction.
Compound 7 was dissolved in 100% DMSO to a specified concentration. The serial dilution was conducted by epMotion 5070 in DMSO. The substrate was freshly prepared in Reaction Buffer and any required cofactors to the substrate solution were added. The kinase was added to the solution and gently mixed. Compound 7 was added in 100% DMSO into the kinase reaction mixture by Acoustic technology (Echo550; nanoliter range), and incubated for 20 min at room temperature. ^33P-ATP (Specific activity 10 μCi/μl) was added into the reaction mixture to initiate the reaction, which was incubated for 2 hours, whereupon kinase activity was detected by the filter-binding method.

Experiment [10] relates to Ba/F3-FLT3 (FLT3-WT). Description: Antiproliferative activity (Table 6). The class given is cell-based, Murin. Particulars: 72 h.
Experiment [11] has as its target T4, FLT3(N841I) (Homo sapiens, UniProt P36888, N841I).
T4 construct: made in house; host or cells: E. coli BL21-derived host (T7 phage) or HEK-293
Description: Binding constant (Kd), competition binding with qPCR readout.

Experiment [12] concerns the target T5, FLT3(K663Q) (Homo sapiens, UniProt P36888, K663Q).
T5 construct: made in house; host or cells: E. coli BL21-derived host (T7 phage) or HEK-293
Described as above.

The target in experiment [13] is T3, BTK C481S. Description: Comparative potency against BTK (Table 8). The format is biochemical. Particulars: x printed without key.
The target of experiment [14] is ITK (Homo sapiens, UniProt Q08881). Description: Key off-targets (Table 8). The format is biochemical.
The test system of experiment [15] is Ba/F3-ITD + D835Y (FLT3-ITD + D835Y). Description: Antiproliferative activity (Table 6). The class given is cell-based, Murin. Particulars: 72 h.
Experiment [16] relates to Ba/F3 cells transfected with FLT3 ITD-D835Y. Description: Cytotoxicity in isogenic transfected Ba/F3 cells (Table 4). The class given is cell-based, Murin. Particulars: Mus musculus, BaF3, read-out: IC50 in Transfected Ba/F3 cells, FLT3 ITD-D835Y.
Experiment [17] relates to Ba/F3-ITD + 842 (ITD + Y842C). Description: Antiproliferative activity (Table 6). The class given is cell-based, Murin. Particulars: 72 h.
In experiment [18] the target is BTK WT (Homo sapiens, UniProt Q06187). Description: Comparative potency against BTK (Table 8). The class given is biochemical. Particulars: Table 8, wild-type BTK.
Experiment [19] has as its system MDS/MPN patient samples. Description: Ex vivo assay for patient sensitivity (MTS, 3-day culture). The class given is cell-based, human. Particulars: N evaluated 15. How it is done:
(§2) 85 Patients with a diagnosis of acute myeloid leukemia (AML), 15 patients with myelodysplastic syndrome/myeloproliferative neoplasms (MDS/MPN), 18 patients with acute lymphoblastic leukemia (ALL), and 56 patients with chronic lymphocytic leukemia (CLL) were evaluated for sensitivity to the multi-kinase inhibitor, Compound 7, using an ex vivo assay. Sensitivity to Compound 7 was evaluated across a concentration range from 10 nM to 10 μM. Cell viability was assessed using a colorimetric, tetrazolium-based MTS assay after a 3-day culture period, and IC50 values were calculated as a measure of drug sensitivity.

Experiment [20] concerns ALL patient samples. Described as above. The format is cell-based, human. Particulars: N evaluated 18. On the procedure:
as §2

Experiment [21] concerns CLL patient samples. The experiment is described as above. The format is cell-based, human. The following applies: N evaluated 56. How it is done:
as §2

The test system of experiment [22] is AML patient samples. Described as above. The class given is cell-based, human. Particulars: N evaluated 85, 10 nM to 10 μM. On the procedure:
as §2

Where “and” joins values, the source holds several entries; their conditions need not be identical. Identical values can stand only once.

T3 sequence (Q06187 whole entry C481S): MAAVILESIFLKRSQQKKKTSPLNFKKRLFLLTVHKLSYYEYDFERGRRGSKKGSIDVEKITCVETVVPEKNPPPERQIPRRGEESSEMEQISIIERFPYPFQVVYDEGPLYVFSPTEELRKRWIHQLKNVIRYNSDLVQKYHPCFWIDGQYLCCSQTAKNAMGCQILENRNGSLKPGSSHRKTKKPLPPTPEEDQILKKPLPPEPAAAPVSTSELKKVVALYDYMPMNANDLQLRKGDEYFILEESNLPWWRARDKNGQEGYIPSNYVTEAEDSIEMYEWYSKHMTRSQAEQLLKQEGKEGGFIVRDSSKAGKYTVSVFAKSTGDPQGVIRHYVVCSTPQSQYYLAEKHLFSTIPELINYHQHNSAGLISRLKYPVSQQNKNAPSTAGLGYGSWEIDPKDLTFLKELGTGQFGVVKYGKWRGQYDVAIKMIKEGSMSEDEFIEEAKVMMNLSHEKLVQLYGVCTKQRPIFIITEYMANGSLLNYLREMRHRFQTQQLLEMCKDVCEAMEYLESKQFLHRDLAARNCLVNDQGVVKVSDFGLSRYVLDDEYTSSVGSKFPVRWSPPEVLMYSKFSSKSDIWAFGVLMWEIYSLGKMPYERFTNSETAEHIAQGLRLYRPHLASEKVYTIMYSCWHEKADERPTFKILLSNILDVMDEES
T1 sequence (Q06187 whole entry C481S): as above
Chain of ITK (Q08881 whole entry): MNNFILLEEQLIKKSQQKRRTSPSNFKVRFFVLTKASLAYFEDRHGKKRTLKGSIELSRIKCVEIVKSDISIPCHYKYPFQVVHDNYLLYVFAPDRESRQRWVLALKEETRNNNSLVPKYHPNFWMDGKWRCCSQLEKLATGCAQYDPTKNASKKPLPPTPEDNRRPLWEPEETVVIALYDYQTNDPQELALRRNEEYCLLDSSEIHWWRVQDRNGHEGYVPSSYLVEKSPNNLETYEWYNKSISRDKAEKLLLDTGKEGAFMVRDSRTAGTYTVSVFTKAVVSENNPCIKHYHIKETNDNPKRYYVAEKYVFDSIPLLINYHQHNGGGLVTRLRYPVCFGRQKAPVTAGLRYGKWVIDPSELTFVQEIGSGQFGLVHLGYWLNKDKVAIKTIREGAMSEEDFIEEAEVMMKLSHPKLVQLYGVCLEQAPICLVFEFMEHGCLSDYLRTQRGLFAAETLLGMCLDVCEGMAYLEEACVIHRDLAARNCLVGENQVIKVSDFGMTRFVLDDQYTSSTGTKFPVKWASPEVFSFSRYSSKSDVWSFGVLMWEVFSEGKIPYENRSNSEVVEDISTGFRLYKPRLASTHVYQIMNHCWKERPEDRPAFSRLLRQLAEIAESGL
T2 sequence (Q06187 whole entry): as the sequence (Q06187 whole entry C481S) above, with S481C counted along it
Chain of BTK WT (Q06187 whole entry): as the sequence (Q06187 whole entry C481S) above, with S481C counted along it

Broadly, the Kd is a measure of binding affinity in units of concentration. Consider `Cc1cnc(-c2ccc(-c3ccc(NC(=O)Nc4c(F)cc(F)cc4F)cc3F)c3c2C(=O)NC3)[nH]1` [Compound 7, 1-{3-fluoro-4-[7-(5-methyl-1H-imidazol-2-yl)-1-oxo-2,3-dihydro-1H-isoindol-4-yl]-phenyl}-3-(2,4,6-trifluorophenyl)urea], for which the BCR signaling entry in [1] is “affects the BCR signaling”. The “Polyploidy (>4n) followed by apoptosis” value in experiment [2] is given as “effectively induced polyploidy (>4n) followed by apoptosis”. Moreover, the Kd was found to be 0.24 nM in experiment [3], 3.1 nM in experiment [7], 0.76 nM in experiment [11] and 0.55 nM in experiment [12]. Further, the IC50 in experiment [4] is 0.17 nM; in experiment [8] it was 0.92 nM; in experiment [9] it was 2.52 nM; in experiment [10], 9.49 nM; in experiment [13], 2.5 nM; in [14] it was 4.3 nM. For the same compound, the IC50 in experiment [15] came out at 9.72 nM; in [16] it was 19.3 nM; in experiment [17], 0.73 nM; in experiment [18], 5 nM. Also, the “Inhibition of BTK (reduction in phosphorylated forms)” value in experiment [5] is “inhibits both wild-type and the C481S mutant form of BTK”; in experiment [6], “inhibits both wild-type and the C481S mutant form of BTK”. The “% samples with IC50 < 0.1 μM” value is 53 (8/15) % in [19]; 61 (11/18) % in experiment [20]; 41 (23/56) % in [21]; 60% and 60 (51/85) % in [22].
